# According to ChEMBL document CHEMBL1201862, “PubChem BioAssay data set” (2004):
# The source made the active and inactive calls.
# How the values were obtained:
# [1] = biological target: T1, Polyadenylate-binding protein 1 (Homo sapiens, UniProt P11940); experiment: PABP1 MLLE–PAM2 binding inhibitor potency, dose response, biochemical, fluorescence polarization, FITC-PAM2 peptide (AID 602259); type: functional; conditions: read-out: IC50_Mean
# [2] = biological target: T1, Polyadenylate-binding protein 1; experiment: PABP1 MLLE–PAM2 interaction inhibitors, dose response, miRNA deadenylation inhibitor project, biochemical, fluorescence polarization, Cy5-PAM2 peptide, secondary (AID 602260); type: functional; conditions: read-out: IC50_Mean
# [3] = Luminescence Cell-Based Dose Confirmation HTS to Identify Activators of 5'UTR Stem-Loop Driven Alpha-Synuclein mRNA Translation in H4 Neuroglioblastoma Cells. [Related pubchem assays: 1829 (Project Summary), 1814 (Primary HTS)]; type: functional
# [4] = Luminescence Cell-Based Dose Response HTS to Identify Activators of Luciferase Translation or Activity in H4 […] Cells. [Related pubchem assays: 1829 (Project Summary), 1814 (Primary HTS)]; type: functional
# H4 = experiment: Luminescence Cell-Based Dose Response HTS to Identify Activators of 5'UTR Stem-Loop Driven Prion Protein mRNA Translation in H4 Neuroglioblastoma Cells. [Related pubchem assays: 1829 (Project Summary), 1814 (Primary HTS)]; type: functional; conditions: Homo sapiens
# Protein RecA = biological target: T2, Protein RecA (Mycobacterium tuberculosis, UniProt P9WHJ3); experiment: Fluorescence Cell-Free Homogeneous Dose Retest to Identify Inhibitors of RecA-Intein Splicing Activity. [Related pubchem assays (depositor defined):AID2097, AID2223, AID489010, AID492950]; type: functional
# T2 sequence (P9WHJ3 whole entry): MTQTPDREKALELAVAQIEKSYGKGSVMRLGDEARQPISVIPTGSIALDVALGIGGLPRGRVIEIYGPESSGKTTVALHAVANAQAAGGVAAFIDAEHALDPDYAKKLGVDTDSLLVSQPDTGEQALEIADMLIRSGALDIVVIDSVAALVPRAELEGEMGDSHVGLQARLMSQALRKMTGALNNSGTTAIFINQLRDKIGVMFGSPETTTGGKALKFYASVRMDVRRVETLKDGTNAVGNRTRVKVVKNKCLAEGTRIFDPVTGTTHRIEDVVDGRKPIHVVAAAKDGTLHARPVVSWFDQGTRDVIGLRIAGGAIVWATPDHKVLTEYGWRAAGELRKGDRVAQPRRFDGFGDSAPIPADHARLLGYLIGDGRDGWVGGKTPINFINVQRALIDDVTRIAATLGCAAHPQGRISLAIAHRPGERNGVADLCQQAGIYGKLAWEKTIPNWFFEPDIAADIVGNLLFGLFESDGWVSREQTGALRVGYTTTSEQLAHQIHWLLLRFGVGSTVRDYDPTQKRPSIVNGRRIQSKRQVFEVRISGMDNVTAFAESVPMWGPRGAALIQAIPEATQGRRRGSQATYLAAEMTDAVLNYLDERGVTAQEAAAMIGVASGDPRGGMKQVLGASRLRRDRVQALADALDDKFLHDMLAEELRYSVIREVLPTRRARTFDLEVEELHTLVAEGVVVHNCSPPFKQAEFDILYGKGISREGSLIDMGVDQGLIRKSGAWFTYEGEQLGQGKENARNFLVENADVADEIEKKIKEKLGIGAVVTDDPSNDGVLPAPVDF
# Cytochrome P450 3A4 = Cytochrome P450 3A4 (Homo sapiens, UniProt P08684);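 note: CYP3A4 tested as one member of a cytochrome P450 panel screen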
# [5] = biological target: T3, Replicative DNA helicase DnaB (Mycobacterium tuberculosis, UniProt P9WMR3); experiment: DnaB intein splicing inhibitors, dose response, biochemical, cell-free fluorescence (AID 449749); type: functional
# T3 sequence (P9WMR3 whole entry): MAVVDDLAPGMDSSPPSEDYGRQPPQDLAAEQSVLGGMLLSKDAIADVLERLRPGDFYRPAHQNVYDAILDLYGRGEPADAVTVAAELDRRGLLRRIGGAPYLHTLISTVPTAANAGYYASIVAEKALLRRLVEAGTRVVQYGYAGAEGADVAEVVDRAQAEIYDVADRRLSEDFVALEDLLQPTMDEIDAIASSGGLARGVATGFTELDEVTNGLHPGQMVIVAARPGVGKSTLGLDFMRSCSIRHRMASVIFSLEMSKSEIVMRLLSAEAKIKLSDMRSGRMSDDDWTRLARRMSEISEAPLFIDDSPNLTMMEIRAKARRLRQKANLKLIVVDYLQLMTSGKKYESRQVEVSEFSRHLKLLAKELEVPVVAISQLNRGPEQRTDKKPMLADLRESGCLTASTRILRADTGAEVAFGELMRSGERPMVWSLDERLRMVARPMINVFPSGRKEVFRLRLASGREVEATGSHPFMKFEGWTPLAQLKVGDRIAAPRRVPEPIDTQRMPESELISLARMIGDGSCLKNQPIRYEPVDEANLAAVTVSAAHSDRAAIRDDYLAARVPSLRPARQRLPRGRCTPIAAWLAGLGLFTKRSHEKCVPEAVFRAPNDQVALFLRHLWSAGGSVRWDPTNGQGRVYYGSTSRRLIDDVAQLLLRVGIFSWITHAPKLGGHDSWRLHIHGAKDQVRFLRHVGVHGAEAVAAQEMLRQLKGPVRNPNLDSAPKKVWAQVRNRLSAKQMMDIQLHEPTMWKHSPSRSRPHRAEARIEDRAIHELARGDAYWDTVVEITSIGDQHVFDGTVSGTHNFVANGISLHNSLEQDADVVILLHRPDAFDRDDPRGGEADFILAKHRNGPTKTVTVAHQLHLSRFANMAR
# Cytochrome P450 2D6 = Cytochrome P450 2D6 (Homo sapiens, UniProt P10635);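 note: CYP2D6 member of a cytochrome P450 panel assay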
# Cytochrome P450 1A2 = biological target: T4, Cytochrome P450 1A2 (Homo sapiens, UniProt P05177);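 note: PubChem cytochrome P450 panel assay, CYP1A2 panel member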
# T4 sequence (P05177 whole entry): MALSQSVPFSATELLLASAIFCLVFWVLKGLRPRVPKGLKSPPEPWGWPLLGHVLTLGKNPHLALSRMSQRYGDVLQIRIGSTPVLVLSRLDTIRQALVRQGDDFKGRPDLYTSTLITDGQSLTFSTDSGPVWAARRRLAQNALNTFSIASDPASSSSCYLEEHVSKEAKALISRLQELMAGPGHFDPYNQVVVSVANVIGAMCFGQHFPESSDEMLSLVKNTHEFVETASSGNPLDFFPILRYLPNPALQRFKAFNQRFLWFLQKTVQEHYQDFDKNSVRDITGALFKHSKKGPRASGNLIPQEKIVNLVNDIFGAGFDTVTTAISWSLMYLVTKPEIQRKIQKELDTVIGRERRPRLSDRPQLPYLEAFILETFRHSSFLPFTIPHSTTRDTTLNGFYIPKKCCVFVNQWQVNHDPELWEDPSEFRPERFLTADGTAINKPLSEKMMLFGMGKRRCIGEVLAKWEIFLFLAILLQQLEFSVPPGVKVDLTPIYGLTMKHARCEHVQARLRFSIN
# [6] = inhibitors of firefly luciferase expression or activity, dose response, H4 neuroglioma cells, luminescence (AID 1990); type: functional, cell-based
# [7] = Luminescence Cell-Based Dose Response HTS to Identify Inhibitors of 5'UTR Stem-Loop Driven Prion Protein mRNA Translation in H4 Neuroglioblastoma Cells. [Related pubchem assays: 1827 (Project Summary), 1813 (Primary HTS)]; type: functional
# [8] = inhibitors of SNCA 5'UTR-driven reporter translation, confirmation, H4 neuroglioma cells, luminescence (AID 1988); type: functional, cell-based
# [9] = intracellular Trypanosoma cruzi inhibitors in host cells – cell-based, plate reader, cherry-pick samples, set 3, dose response (AID 651818); type: functional;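 note: compounds incubated with infected cells for about four days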
# T1 sequence (P11940 whole entry): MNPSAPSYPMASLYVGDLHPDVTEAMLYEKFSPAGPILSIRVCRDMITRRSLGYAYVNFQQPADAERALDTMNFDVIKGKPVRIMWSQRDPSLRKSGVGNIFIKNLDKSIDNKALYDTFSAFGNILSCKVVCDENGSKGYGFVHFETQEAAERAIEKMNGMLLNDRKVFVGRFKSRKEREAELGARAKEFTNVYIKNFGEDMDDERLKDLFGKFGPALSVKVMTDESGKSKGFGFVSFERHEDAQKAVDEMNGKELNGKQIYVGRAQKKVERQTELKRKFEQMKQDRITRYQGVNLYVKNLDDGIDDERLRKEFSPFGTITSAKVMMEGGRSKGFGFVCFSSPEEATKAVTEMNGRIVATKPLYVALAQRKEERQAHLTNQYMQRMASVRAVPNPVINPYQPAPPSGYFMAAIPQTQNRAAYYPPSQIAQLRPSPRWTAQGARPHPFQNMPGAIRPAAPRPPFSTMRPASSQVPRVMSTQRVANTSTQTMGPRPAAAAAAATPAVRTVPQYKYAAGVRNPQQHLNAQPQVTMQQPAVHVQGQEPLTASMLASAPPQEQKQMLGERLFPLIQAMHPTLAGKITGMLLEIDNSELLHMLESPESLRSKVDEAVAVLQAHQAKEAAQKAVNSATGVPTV
# Chain of Cytochrome P450 2D6 (P10635 whole entry): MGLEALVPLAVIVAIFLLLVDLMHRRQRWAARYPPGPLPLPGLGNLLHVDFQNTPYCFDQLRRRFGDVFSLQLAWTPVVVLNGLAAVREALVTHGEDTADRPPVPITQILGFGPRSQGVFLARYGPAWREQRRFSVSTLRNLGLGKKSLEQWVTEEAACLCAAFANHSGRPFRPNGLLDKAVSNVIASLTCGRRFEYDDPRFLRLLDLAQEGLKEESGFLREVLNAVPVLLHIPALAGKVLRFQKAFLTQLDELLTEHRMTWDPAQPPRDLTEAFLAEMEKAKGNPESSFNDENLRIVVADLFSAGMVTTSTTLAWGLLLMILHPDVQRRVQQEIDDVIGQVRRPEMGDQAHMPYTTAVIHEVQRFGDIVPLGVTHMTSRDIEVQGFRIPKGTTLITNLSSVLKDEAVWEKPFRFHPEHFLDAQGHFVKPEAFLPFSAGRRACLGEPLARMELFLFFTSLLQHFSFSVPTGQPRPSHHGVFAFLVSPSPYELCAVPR
# Chain of Cytochrome P450 3A4 (P08684 whole entry): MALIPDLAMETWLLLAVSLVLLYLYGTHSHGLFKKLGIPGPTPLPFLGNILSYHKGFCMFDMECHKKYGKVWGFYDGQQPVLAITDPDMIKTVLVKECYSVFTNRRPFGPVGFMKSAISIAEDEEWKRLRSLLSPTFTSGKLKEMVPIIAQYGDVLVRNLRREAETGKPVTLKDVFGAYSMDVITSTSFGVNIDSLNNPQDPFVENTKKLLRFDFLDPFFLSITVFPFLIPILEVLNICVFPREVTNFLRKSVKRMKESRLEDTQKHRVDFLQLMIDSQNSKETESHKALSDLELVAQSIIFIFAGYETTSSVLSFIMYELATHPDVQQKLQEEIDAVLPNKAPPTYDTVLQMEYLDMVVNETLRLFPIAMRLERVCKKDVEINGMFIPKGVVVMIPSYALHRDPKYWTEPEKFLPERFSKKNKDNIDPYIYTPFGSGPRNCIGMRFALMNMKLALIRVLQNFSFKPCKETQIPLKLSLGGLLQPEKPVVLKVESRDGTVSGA
compound,measurement,setting,value
COc1ccc(-c2csc(NC(=O)CSc3n[nH]c(N)n3)n2)cc1,IC50,[1],> 66 µM (inactive)
same,IC50,[2],> 66 µM (inactive)
CCOC(=O)CC1=C(C(=O)OCC)C(c2ccc(C)o2)C(C#N)=C(N)O1 (centres undefined),IC50,[1],32 µM (inactive)
same,IC50,[2],> 66 µM (inactive)
CCCc1cc(C(=O)NCC(C)C)no1,EC50,[3],14.8 µM (active)
same,EC50,[4],22.9 µM (active)
Cc1cc(Nc2nc3ccccc3nc2Cl)n(-c2ccccc2)n1,EC50,[3],> 120 µM (not active)
same,EC50,H4,> 120 µM (not active)
same,EC50,[4],> 120 µM (not active)
CCCc1n[nH]c2c1C(c1ccncc1)C(C#N)=C(N)O2 (centres undefined),EC50,Protein RecA,17.6 µM (active)
same,AC50,Cytochrome P450 3A4,39.8 µM (inconclusive)
same,AC50,[5],45.8 µM (active)
same,AC50,Cytochrome P450 2D6,25.1 µM (inconclusive)
same,AC50,Cytochrome P450 1A2,25.1 µM (inconclusive)
CC(=O)Nc1ccc(SCC(=O)Nc2ccccc2Oc2ccccc2)cc1,IC50,[1],> 66 µM (inactive)
same,IC50,[2],> 66 µM (inactive)
COc1ccc2cc(-c3[nH]ncc3CN3CCCCO3)ccc2c1,EC50,[3],> 120 µM (not active)
same,EC50,H4,> 60 µM (not active)
same,EC50,[4],25 µM (active)
Cc1cc(NS(=O)(=O)c2ccc(NC(=S)NC(=O)c3ccc(Br)cc3)cc2)no1,IC50,[1],> 66 µM (inactive)
same,IC50,[2],> 66 µM (inactive)
Cn1c(-c2ccc(F)cc2)cnc1SCC(=O)Nc1ccccc1N1CCOCC1,EC50,H4,0.244 µM (active)
CCc1nnc2c3cnn(-c4ccccc4)c3ncn12,EC50,[3],5.12 µM (active)
same,EC50,H4,> 120 µM (not active)
same,EC50,[4],113 µM (active)
O=C(Cc1ccc(-n2c(=O)[nH]c3ccccc3c2=O)cc1)N1CCN(c2cccc(Cl)c2)CC1,EC50,[6],23 µM (active)
same,EC50,[7],25.3 µM (active)
same,EC50,[8],> 120 µM (not active)
same,AC50,Cytochrome P450 2D6,14.1 µM (inconclusive)
same,AC50,Cytochrome P450 1A2,17.8 µM (inconclusive)
O=C(NC(=S)NC1CCSC1=O)c1cccc([N+](=O)[O-])c1 (centres undefined),IC50,[1],> 66 µM (inactive)
same,IC50,[2],> 66 µM (inactive)
CC(Cc1cccs1)NC(=O)NC1CCCCC1 (centres undefined),EC50,[3],> 60 µM (not active)
same,EC50,H4,39.8 µM (active)
same,EC50,[4],68.9 µM (active)
O=C(CSc1nc(O)c(Cc2ccccc2)c(O)n1)c1ccccc1,EC50,[3],14.7 µM (active)
same,EC50,H4,14.4 µM (active)
same,EC50,[4],> 120 µM (not active)
COc1ccc(-n2ccnc(SCC(=O)NC3CCCC3)c2=O)cc1OC,IC50,[1],> 66 µM (inactive)
same,IC50,[2],> 66 µM (inactive)
COCCNC(=O)Cc1c(C)c2c(cc(C)c3c(C(C)(C)C)coc32)oc1=O,EC50,[3],> 120 µM (not active)
same,EC50,H4,> 120 µM (not active)
same,EC50,[4],10.1 µM (active)
Cc1ccc(NC(=O)CN2C(=O)S/C(=C/c3ccncc3)C2=O)cc1,IC50,[1],> 66 µM (inactive)
same,IC50,[2],> 66 µM (inactive)
C[C@H](CO)N1C[C@H](C)[C@@H](CN(C)S(=O)(=O)c2ccccc2)Oc2c(NC(=O)Nc3ccccc3)cccc2C1=O,AC50,[9],20 µM (inactive)
Cc1ccc(S(=O)(=O)Nc2ccc3c(c2)CC(=O)N([C@H](C)CO)C[C@@H](C)[C@@H](CN(C)Cc2ccc(C(=O)Nc4ccccc4N)cc2)O3)cc1,AC50,[9],3.25 µM (active)
C[C@@H]1CN([C@@H](C)CO)C(=O)c2cccc(NC(=O)CCCCCC(=O)Nc3ccccc3N)c2O[C@H]1CN(C)Cc1ccc(Cl)c(Cl)c1,AC50,[9],3.06 µM (active)
C[C@@H]1CN([C@@H](C)CO)C(=O)c2cccc(NS(=O)(=O)c3ccc(Cl)cc3)c2O[C@@H]1CN(C)C(=O)Nc1ccc(C(F)(F)F)cc1,AC50,[9],3.58 µM (active)
C[C@@H]1CN([C@@H](C)CO)C(=O)c2cccc(NC(=O)Nc3ccccc3)c2O[C@H]1CN(C)Cc1ccc(C(=O)Nc2ccccc2N)cc1,AC50,[9],0.869 µM (active)
Cc1ccc(S(=O)(=O)Nc2ccc3c(c2)CC(=O)N([C@H](C)CO)C[C@@H](C)[C@@H](CN(C)Cc2ccc(Oc4ccccc4)cc2)O3)cc1,AC50,[9],2.03 µM (active)
C[C@@H]1CN([C@H](C)CO)C(=O)Cc2cc(NS(=O)(=O)c3ccccc3)ccc2O[C@@H]1CN(C)Cc1ccc(-c2ccccc2)cc1,AC50,[9],3.26 µM (active)
C[C@@H]1CN([C@@H](C)CO)C(=O)c2cccc(NC(=O)CCCCCC(=O)Nc3ccccc3N)c2O[C@@H]1CN(C)Cc1ccc(Oc2ccccc2)cc1,AC50,[9],2.17 µM (active)
Cc1ccc(S(=O)(=O)N(C)C[C@H]2Oc3c(NC(=O)CCCCCC(=O)Nc4ccccc4N)cccc3C(=O)N([C@H](C)CO)C[C@@H]2C)cc1,AC50,[9],1.42 µM (active)
C[C@@H]1CN([C@@H](C)CO)C(=O)c2cccc(N(C)C)c2O[C@@H]1CN(C)Cc1ccc(Oc2ccccc2)cc1,AC50,[9],6.65 µM (active)
C[C@@H]1CN([C@@H](C)CO)C(=O)c2cccc(NC(=O)Nc3ccccc3)c2O[C@@H]1CN(C)S(=O)(=O)c1cccs1,AC50,[9],14.8 µM (active)
C[C@H]1CN([C@@H](C)CO)C(=O)c2cc(NC(=O)Nc3cccc4ccccc34)ccc2O[C@H]1CN(C)Cc1ccc(-c2ccccc2)cc1,AC50,[9],5.22 µM (active)
C[C@H]1CN([C@@H](C)CO)C(=O)Cc2cc(N(C)C)ccc2O[C@@H]1CN(C)Cc1ccc(-c2ccccc2)cc1,AC50,[9],2.21 µM (active)
C[C@@H]1CN([C@@H](C)CO)C(=O)Cc2cc(NC(=O)Cc3ccccc3)ccc2O[C@@H]1CN(C)Cc1ccc(C(=O)Nc2ccccc2N)cc1,AC50,[9],3.09 µM (active)
